The values below come from patent US20110269811A1, “INHIBITORS OF SEMICARBAZIDE-SENSITIVE AMINE OXIDASE (SSAO) AND VAP-1 MEDIATED ADHESION USEFUL FOR TREATMENT AND PREVENTION OF DISEASES” (priority 2006, published 2011).

Each structure is given as a SMILES string.

The target of one series is T1, Human SSAO (Homo sapiens, UniProt Q16853).
T1 construct: rat lung or human umbilical cord homogenates were prepared by chopping the freshly removed tissue; from tissue; host or cells: human umbilical cord homogenate (25,000 g supernatant)
T1 sequence (Q16853 1-763): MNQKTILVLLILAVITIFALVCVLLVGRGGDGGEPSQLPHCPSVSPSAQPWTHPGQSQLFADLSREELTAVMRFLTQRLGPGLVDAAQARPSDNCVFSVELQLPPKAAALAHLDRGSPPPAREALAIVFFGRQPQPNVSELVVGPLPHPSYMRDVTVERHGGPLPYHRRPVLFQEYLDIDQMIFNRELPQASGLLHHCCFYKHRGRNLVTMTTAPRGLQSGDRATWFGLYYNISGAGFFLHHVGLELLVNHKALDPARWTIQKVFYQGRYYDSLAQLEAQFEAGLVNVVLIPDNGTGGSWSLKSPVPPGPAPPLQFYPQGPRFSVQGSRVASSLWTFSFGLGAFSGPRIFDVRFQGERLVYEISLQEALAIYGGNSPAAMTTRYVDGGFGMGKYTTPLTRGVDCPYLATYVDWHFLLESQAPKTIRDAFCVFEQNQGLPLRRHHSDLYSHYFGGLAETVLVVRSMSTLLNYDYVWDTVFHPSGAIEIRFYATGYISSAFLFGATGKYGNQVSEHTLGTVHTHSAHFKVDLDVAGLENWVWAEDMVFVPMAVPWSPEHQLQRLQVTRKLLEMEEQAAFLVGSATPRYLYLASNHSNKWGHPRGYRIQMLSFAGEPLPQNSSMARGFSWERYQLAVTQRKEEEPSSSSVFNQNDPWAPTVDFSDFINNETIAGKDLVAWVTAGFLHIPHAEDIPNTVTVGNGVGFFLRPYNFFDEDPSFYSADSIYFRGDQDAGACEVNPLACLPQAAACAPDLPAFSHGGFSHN
In words: In vitro inhibition of SSAO activity, human umbilical cord homogenate, 14C-benzylamine. It counts as biochemical. Details: Human SSAO, percent at given concentration: unit of the concentration uncertain. Particulars: for IC50: human umbilical cord homogenate, read-out: Human SSAO IC50. Here is the method: SSAO activity was measured as described (Lizcano J M. Et al. (1998) Biochem J. 331:69). Briefly, rat lung or human umbilical cord homogenates were prepared by chopping the freshly removed tissue into small pieces and washing them thoroughly in PBS. The tissue was then homogenized 1:10 (w/v) for lung or 1:5 (w/v) for umbilical cord, in 10 mM potassium phosphate buffer (pH 7.8). Homogenates were then centrifuged at 1000 g at 4° C. for 10 min (lung) or 25,000 g for 30 min (umbilical cord); the supernatants were kept frozen until ready to use. Lung or umbilical cord homogenate was preincubated with clorgyline and pargyline at 1 μM to inhibit MAO-A and -B activity, respectively, and SSAO inhibitors were generally present at 1 nM-10 μM. The reaction was initiated by addition of 20 μM ^14C— benzylamine as substrate. The reaction was carried out at 37° C. in a final volume of 400 μL of 100 mM potassium phosphate buffer (pH 7.2) and stopped with 100 μl of 2M citric acid. Radioactively labeled products were extracted into toluene/ethyl acetate (1:1, v/v) containing 0.6% (w/v) 2,5-diphenyloxazole (PPO) before liquid scintillation counting.

The test system of series [1] is carrageenan-induced paw edema. In words: Carrageenan-induced rat paw edema. The class given is in vivo, Sprague Dawley rats. Particulars: therapeutic dosing: 3 mg/kg orally one hour after 0.375% carrageenan; FIG. 8. The source says:
Carrageenan-induced paw edema has been extensively used in the evaluation of anti-inflammatory effects of various therapeutic agents and is a useful experimental system for assessing the efficacy of compounds to alleviate acute inflammation (Whiteley P E and Dalrymple S A, 1998. Models of inflammation: carrageenan-induced paw edema in the rat, in Current Protocols in Pharmacology. Enna S J, Williams M, Ferkany J W, Kenaki T, Porsolt R E and Sullivan J P, eds., pp 5.4.1-5.4.3, John Wiley & Sons, New York). The full development of the edema is neutrophil-dependent (Salvemini D. et al. (1996) Br. J. Pharmacol. 118: 829).
Female Sprague Dawley rats were used in groups of 8-12 and compounds of the invention were administered orally at up to 50 mg/kg 60 min prior to carrageenan exposure. The control group was administered orally an equal volume of vehicle (PBS). Edema in the paws was induced as previously described by injecting 50 μL of a 0.5% solution of carrageenan (Type IV Lambda, Sigma) in saline with a 27-G needle s.c. in the right foot pad. (See Whiteley P. E. and Dalrymple S. A. (1998), Models of inflammation: carrageenan-induced paw edema in the rat, in Current Protocols in Pharmacology, Enna S J, Williams M, Ferkany J W, Kenaki T, Porsolt R E and Sullivan J P, eds., pp 5.4.1-5.4.3, John Wiley & Sons, New York) The size of the tested foot of each animal was measured volumetrically with a plethysmometer immediately after injection of carrageenan solution and at various times up to 360 min after carrageenan induction.
Results of experiments with the compounds II-1-E, I-1-Z, and I-2-Z are shown in FIG. 1, FIG. 5, and FIG. 6, respectively.
Using the same procedure discussed above, the size of the foot of each animal was measured volumetrically before induction of edema, and at 1.5, 3, 4.5 and 6 h after the carrageenan injection. The absolute decreases in paw swelling at 6 h with 1, 10 and 50 mg/kg were 5±11%, 20±9% and 32±6% respectively. Statistical analyses were performed with repeated measures ANOVA followed by Dunnett's test for multiple comparisons.
Paw edema was induced in groups of eight Sprague Dawley rats by injecting 50 μL of a 0.375% solution of carrageenan X in saline, subcutaneously in the foot. After one hour animals were orally dosed once with PBS, compound I-1-Z at 50 mg/kg or with indomethacin at 3 mg/kg. The size of the paws were measured before induction of edema (baseline), and at 1.5, 3, 4.5 and 6 h after carrageenan injection. […] Statistical analyses were performed with repeated measures ANOVA followed by Dunnett's test for multiple comparisons.
Groups of eight Sprague Dawley rats were orally administered PBS, or 0.01, 0.1 or 1 mg/kg of compound I-1-Z. One hour later paw edema was induced in all animals by injecting 50 μL of a 0.5% solution of carrageenan X in saline, subcutaneously into the footpad. The size of the foot of each animal was measured volumetrically before induction of edema, and at 1.5, 3, 4.5 and 6 h after the carrageenan injection. The absolute decreases in paw swelling at 6 h with 0.1 and 1 mg/kg were 34±8 and 29±8% respectively. Statistical analyses were performed with repeated measures ANOVA followed by Dunnett's test for multiple comparisons.
For orientation: In the carrageenan paw model, swelling and tenderness develop within hours.

For `Cc1ccc(CC/C(=C/Cl)CN)cc1.Cl` [Compound I-39-Z, (Z)-3-Chloro-2-(4-methylphenylethyl)allylamine hydrochloride], the melting point was 135 °C (dec.). The IC50 at Human SSAO was 1.2 µM. Turning to `NC/C(=C/Cl)CCc1ccc(F)cc1.O=C(O)C(F)(F)F` [Compound I-42-Z, (E)-3-Chloro-2-(4-fluorophenylethyl)allylamine trifluoroacetate], the melting point is 52 to 53 °C. Also, the “Human SSAO, percent at given concentration” value (shortened to “Human SSAO, percent”) on Human SSAO (@8 (unit uncertain)) was 73%@8 mM.

Compound `NC/C(=C/Cl)CCc1ccc(Cl)cc1.O=C(O)C(F)(F)F` [Compound I-43-Z, (E)-3-Chloro-2-(4-chlorophenylethyl)allylamine trifluoroacetate] returned a melting point of 68 to 70 °C. Also, the 50% inhibitory concentration (IC50) on Human SSAO is 1.4 µM. `Cc1cccc(CC/C(=C\Cl)CN)c1.Cl` [Compound I-48-E, (E)-3-Chloro-2-(3-methylphenylethyl)allylamine hydrochloride] came in with a melting point of 95 to 97 °C. Besides, the IC50 at Human SSAO amounted to 10 µM. In turn, `COc1cccc(CC/C(=C\Cl)CN)c1.Cl` [Compound I-49-E, (E)-3-Chloro-2-(3-methoxyphenylethyl)allylamine hydrochloride] showed a melting point of 85 to 87 °C. The IC50 on Human SSAO stood at 5.5 µM. For `Cc1ccc(CC/C(=C\Cl)CN)cc1.Cl` [Compound I-50-E, (E)-3-Chloro-2-(4-methylphenylethyl)allylamine hydrochloride] the same measures were 124 to 125 °C and 1 µM. For `Cl.NC/C(=C/Cl)CCc1cc(F)cc(C(F)(F)F)c1` [Compound I-51-E, (E)-3-Chloro-2-(3-fluoro-5-trifluoromethylphenylethyl)allylamine hydrochloride], the melting point was 96 to 97 °C. At Human SSAO (@40 (unit uncertain)), the “Human SSAO, percent” value turned out to be 33%@40 mM. With `Cl.NC/C(F)=C\Cc1cc(C(F)(F)F)cc(C(F)(F)F)c1` [II-12-E, (E)-2-Fluoro-4-(3,5-ditrifluoromethylphenyl)-2-butenylamine hydrochloride], the melting point lay in the range of 197 to 198 °C. For the same compound, the “Human SSAO, percent” value on Human SSAO (@7 (unit uncertain)) is 55%@7 mM. The compound `COc1ccccc1C/C=C(/F)CN.Cl` [II-17-E, (E)-2-Fluoro-4-(2-methoxyphenyl)-2-butenylamine hydrochloride] yielded a melting point of 133 to 134 °C. Also, the IC50 on Human SSAO turned out to be 4.5 µM. Turning to `NCC(=O)CCc1ccc(F)cc1` [IV-1, 1-amino-4-(4-fluorophenyl)butan-2-one], on Human SSAO (@8 (unit uncertain)), the “Human SSAO, percent” value is listed as 45%@8 mM. As for `COc1ccc(CCC(=O)CN)cc1` [IV-3, 1-amino-4-(4-methoxyphenyl)butan-2-one], on Human SSAO, the IC50 was determined as 3 µM. For the compound `COc1cccc(CCC(=O)CN)c1` [IV-8, 1-amino-4-(3-methoxyphenyl)butan-2-one], the IC50 at Human SSAO is 3.7 µM. On to `NCC(=O)CCc1cc(F)cc(C(F)(F)F)c1` [IV-10, 1-amino-4-(3-fluoro-5-(trifluoromethyl)phenyl)butan-2-one], for which the concentration for half-maximal inhibition (IC50) on Human SSAO is 1.5 µM.

As to `COc1ccc2c(c1)c(CC(=O)O)c(C)n2C(=O)c1ccc(Cl)cc1` [indomethacin, reference compound], the “inhibition of paw edema at 6 h” value in series [1] is 67±8%.

As a reminder, the IC50 is the concentration needed to halve the response being measured. By melting point is commonly meant the temperature of the solid-liquid transition.
